The target in the assay is T1, LXRα or LXRβ.
T1 construct: fused on or other part: N-terminal poly-His tag from the pBacPakhis1 vector
Kind of assay: Saturation binding of [3H] 24,25 epoxycholesterol (EC) to the receptor. Also noted: species or system human. The conditions noted are these: as determined by saturation binding; typical value used for the Cheng and Prusoff equation. The protocol: The SPA assay measures the radioactive signal generated by the binding of ^3H-24,25-epoxycholesterol to LXRα or LXRβ. The basis of the assay is the use of SPA beads containing a scintillant, such that when binding to the receptor brings the labeled ligand into proximity with the bead, the energy from the label stimulates the scintillant to emit light. The light is measured using a standard microplate scintillation reader. The ability of a ligand to bind to a receptor can be measured by assessing the degree to which the compound can compete off a radiolabelled ligand with known affinity for the receptor.
For this assay, typically the Concentration of Ligand=50 nM and the Kd of EC for the receptor is 200 nM as determined by saturation binding.

pKd: −log10 of the molar value.

For orientation: pKd means the negative decadic logarithm of the Kd, by convention in mol/L. The compound `C[C@H](CCC1OC1(C)C)[C@H]1CC[C@H]2[C@@H]3CC=C4C[C@@H](O)CC[C@]4(C)[C@H]3CC[C@]12C` (stereo partly shown) [EC, 24,25 Epoxycholesterol] showed a negative-log Kd (pKd) of 6.70.
